From paper PMC12749127 (Scientific Reports, 2025)

Key:
DENV-2 = experiment: IMPA1 silencing using siRNA, DENV-2 virus titer in imHC cells; type: cell-based; conditions: Dengue virus, DENV2, read-out: decrease of inhibitory effect of ebselen in si_IMPA1-silenced cells
PI(4)P and ZIKV-NS1 = experiment: Immunofluorescence of PI; type: cell-based; conditions: ZIKV-infected imHC cells, MOI 1, 48 hpi, ebselen treatment
myo-inositol levels = experiment: Cellular myo-inositol levels; type: cell-based; conditions: 30 mM LiCl or 25 µM ebselen
[1] = target: T1, recombinant human inositol monophosphatase 1 (IMPA1) (Homo sapiens, UniProt P29218); experiment: In vitro enzymatic assay of IMPA activity; type: biochemical
T1 sequence (P29218 1-277): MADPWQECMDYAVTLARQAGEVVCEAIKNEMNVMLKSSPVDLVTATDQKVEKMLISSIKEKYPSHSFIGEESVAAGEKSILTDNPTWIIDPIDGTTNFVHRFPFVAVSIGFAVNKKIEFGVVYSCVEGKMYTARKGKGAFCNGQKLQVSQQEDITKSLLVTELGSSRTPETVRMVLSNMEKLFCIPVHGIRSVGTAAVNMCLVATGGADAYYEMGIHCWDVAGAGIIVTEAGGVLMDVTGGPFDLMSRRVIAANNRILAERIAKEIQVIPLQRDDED

IMPA = conditions: in vitro assays; cited from earlier work
recombinant bovine IMPA = conditions: read-out: inhibition constant (Ki); cited from earlier work
recombinant human IMPA = conditions: read-out: inhibition constant (Ki); cited from earlier work
PI(4)P = experiment: Immunofluorescence of PI; type: cell-based, human; conditions: imHC cells, 24 hours of treatment

SMILES: O=c1c2ccccc2[se]n1-c1ccccc1 [Ebselen]
- inhibition at 20 µM (DENV-2): ~16%
- PI(4)P levels (in words) (PI(4)P and ZIKV-NS1): reduction
- ZIKV-NS1 protein expression (in words) (PI(4)P and ZIKV-NS1): reduction
- myo-inositol levels vs untreated control (in words) (myo-inositol levels): significant reduction
- IC50 [1]: 950 nM

SMILES: CC(Oc1ccc(O)cc1)(P(=O)(O)O)P(=O)(O)O [L-690,330]
- potency relative to lithium (in words) (IMPA): approximately a thousand-fold greater potency than lithium
- Ki (recombinant bovine IMPA): 190 nM
- Ki (recombinant human IMPA): 270 nM

SMILES: [Cl-].[Li+] [LiCl]
- myo-inositol levels vs untreated control (in words) (myo-inositol levels): significant reduction

SMILES: O[C@H]1[C@H](O)[C@@H](O)[C@H](O)[C@@H](O)[C@H]1O [inositol]
- PI(4)P levels following the addition of inositol (in words) (PI(4)P): increased levels
